From publication PMC12332667, “Role of Structural Modifications in Peptidomimetic Compounds as Potential Antimicrobial Agents against Staphylococcus aureus and Streptococcus pyogenes: Balancing Bioavailability, Safety, and Antimicrobial Activity” (ACS Omega, 2025)
Converted amounts (≈) assume the structure as drawn. Non-standard residues stand in square brackets, D forms with d. Residues, ends and D or L forms follow the SMILES beside them. *: point of attachment. NHPhenethyl = c1ccc(CCN*)cc1; β3hV = CC(C)[C@H](N)CC(=O)O; Cbz = O=C(OCc1ccccc1)*

Experiments:
[1] = test system: K. pneumoniae ATCC 700603; assay: MIC/MBC broth microdilution, K. pneumoniae; assay type: cell-based
Procedure: (§1) S. aureus (ATCC 29213),S. pyogenes (ATCC 19615),Streptococcus agalactiae (ATCC 27956),Escherichia coli (ATCC 25922),Proteus vulgaris (ATCC 6896),K. pneumoniae (ATCC 700603) andP. aeruginosa (ATCC 10145) reference strains, as well asStaphylococcus cohnii, Enterococcus faecalis, Staphylococcus schleiferi, Staphylococcus intermedius and Streptococcus mutans clinical isolates, were used to test the antibacterial activity of the peptidomimetics. Bacteria were aerobically cultured for 18 h at 37 °C in plates with sterilized brain heart infusion (BHI) broth (Sigma-Aldrich, USA) media mixed with bacteriological agar (Sigma-Aldrich, USA) using the streak plate method. After 18 h, BHI broth was inoculated to 0.5 on the McFarland scale and diluted to approximately 10^5 CFU/mL. To achieve a final stock concentration of 1024 μg/mL, the peptidomimetics were dissolved in sterile water, and 5–10% of absolute ethanol or dimethyl sulfoxide (DMSO) was added. The antibacterial activities were determined by using the standard broth microdilution method of the National Committee for Clinical Laboratory Standards. The process involved adding serially diluted peptidomimetics to consecutive wells of a 96-well microtiter plate (Brand, Germany) holding media with microorganisms. The inoculated plates treated with peptides were then placed in an incubator at 37 °C for 18 h. The MIC value was determined as the lowest concentration of peptidomimetic at which there was no obvious growth (equal or more than 90% of the untreated sample). […] The lowest concentration yielding growth in no more than 3 colonies, corresponding to at least a 99.9% kill rate, was taken as MBC. Each biological replicate included control wells with the addition of water, DMSO, and ethanol as respective solvent controls. All experiments were conducted with consistent adherence to growth and sterility controls and were performed at least in technical triplicate with three biological repeats.

E. faecalis c.i. = assay: MIC/MBC broth microdilution, E. faecalis; assay type: cell-based, Enterococcus faecalis
Procedure: as §1

S. schleiferi c.i. = assay: MIC/MBC broth microdilution, S. schleiferi; assay type: cell-based, Staphylococcus schleiferi
Procedure: as §1

S. agalactiae ATCC 27956 = assay: MIC/MBC broth microdilution, S. agalactiae; assay type: cell-based, Streptococcus agalactiae; conditions: S. agalactiae, water additive EtOH
Procedure: as §1

S. mutans c.i. = assay: MIC/MBC broth microdilution, S. mutans; assay type: cell-based, Streptococcus mutans
Procedure: as §1

S. aureus ATCC 43300 = assay: MIC/MBC broth microdilution, S. aureus; assay type: cell-based, Staphylococcus aureus; conditions: S. aureus
S. cohnii c.i. = assay: MIC/MBC broth microdilution, S. cohnii; assay type: cell-based, Staphylococcus cohnii
Procedure: as §1

fibroblasts (46BR.1N) = assay: LDH cytotoxicity test, fibroblasts; assay type: cell-based; conditions: 48 h, 50, 100 and 150 μg/mL, vs 1% Triton X-100
Procedure: (§2) In our study, we used two distinct cell types: immortalized human HaCaT keratinocytes (DKFZ, Heidelberg, Germany) and a human dermal fibroblast cell line (46BR.1N). […] Cultures were maintained in a humidified atmosphere with 5% CO2 at 37 °C in 25 cm^2 culture flasks with the medium replenished every 2 days. The condition of the cells was monitored using optical microscopy.
(§3) Cell death in immortalized human keratinocytes (HaCaT) and fibroblasts (46BR.1N) was measured by quantifying the lactate dehydrogenase (LDH) activity using a commercial kit (Roche, Switzerland). Cells were seeded in 96-well plates at a density of 5000 cells per well in DMEM high glucose medium supplemented with 10% FBS. After 24 h of incubation, the medium was replaced with serum-free medium containing various concentrations of peptidomimetics (50, 100, and 150 μg/mL). After 48 h, supernatants were collected for LDH analysis. Plate readings were taken spectrophotometrically using a 450 nm wavelength. Cell death measurements were normalized to an untreated control (0%), with 1% Triton X-100 detergent used as a positive control to induce maximum LDH release, indicating maximal cytotoxicity. Statistical significance was determined with a Mann–Whitney U test with a statistical significance p ≤ 0.05. Analysis was performed with Statistica software (Krakow, Poland) and graphs were prepared in GraphPad Prism (Boston, USA).

E. coli ATCC 25922 = assay: MIC/MBC broth microdilution, E. coli; assay type: cell-based, Escherichia coli
Procedure: as §1

[2] = test system: human dermal fibroblast cell line (46BR.1N); assay: XTT cell proliferation assay, fibroblasts; assay type: cell-based; conditions: for effect on proliferation, in words: XTT, 48 and 72 h, 0.01–150 μg/mL
Procedure: (§4) In our study, we used two distinct cell types: immortalized human HaCaT keratinocytes (DKFZ, Heidelberg, Germany) and a human dermal fibroblast cell line (46BR.1N). […] Cultures were maintained in a humidified atmosphere with 5% CO2 at 37 °C in 25 cm^2 culture flasks with the medium replenished every 2 days. The condition of the cells was monitored using optical microscopy. […] After 24 h of incubation, the medium was replaced with serum-free HG-DMEM containing appropriate concentrations of peptidomimetics. All solutions used in the experiments were prepared with double-distilled water or with the addition of ethanol under sterile conditions to ensure compatibility with the conditions of the bacteriological assay. For 72 h of incubation, half of the medium was replaced with fresh medium after 48 h, and cells were stimulated with peptides for a second time. The XTT cell proliferation assay was then performed according to the manufacturer’s instructions (Roche, Switzerland). Cells were treated with the peptides for either 48 or 72 h, followed by the addition of XTT reagent, and the plates were then incubated at 37 °C in a 5% CO2 environment for 4 h. Plate readings were taken using a standard plate reader at a wavelength of 490 nm (OD = 490 nm). […] Statistical significance was determined with a Mann–Whitney U test with statistical significance p ≤ 0.05. Analysis was performed with Statistica software, and graphs were prepared in GraphPad Prism.

[3] = test system: immortalized human HaCaT keratinocytes; assay: XTT cell proliferation assay, keratinocytes; assay type: cell-based; conditions: for effect on proliferation, in words: XTT, 48 and 72 h, 0.01–150 μg/mL
Procedure: as §4

P. vulgaris ATCC 6896 = assay: MIC/MBC broth microdilution, P. vulgaris; assay type: cell-based, Proteus vulgaris
Procedure: as §1

P. aeruginosa ATCC 10145 = assay: MIC/MBC broth microdilution, P. aeruginosa; assay type: cell-based
Procedure: as §1

[4] = test system: immortalized human keratinocytes (HaCaT); assay: LDH cytotoxicity test, keratinocytes; assay type: cell-based; conditions: 48 h, 50, 100 and 150 μg/mL, vs 1% Triton X-100
Procedure: as §2, §3

S. pyogenes ATCC 19615 = assay: MIC/MBC broth microdilution, S. pyogenes; assay type: cell-based, Streptococcus pyogenes; conditions: S. pyogenes
Procedure: as §1

[5] = up to 150 μg/mL, A-193 and A-179 after 48 h

MIC ([1]; water additive DMSO) | MIC ([1]; water additive EtOH) | MIC (E. faecalis c.i.; water additive DMSO) | MIC (E. faecalis c.i.; water additive EtOH) | MIC (S. schleiferi c.i.; water additive EtOH) | MIC (S. mutans c.i.; water additive EtOH) | MIC (S. aureus ATCC 43300; water additive DMSO) | MIC (E. coli ATCC 25922; water additive DMSO) | MIC (E. coli ATCC 25922; water additive EtOH) | MIC (P. vulgaris ATCC 6896; water additive DMSO) | MIC (P. vulgaris ATCC 6896; water additive EtOH) | MIC (P. aeruginosa ATCC 10145; water additive DMSO) | MIC (P. aeruginosa ATCC 10145; water additive EtOH) | Compound | MBC (E. faecalis c.i.; water additive EtOH) | effect on proliferation, in words [2] | effect on proliferation, in words [3] | cytotoxicity (LDH) [4] | MBC (S. pyogenes ATCC 19615; H2O) | MBC (S. pyogenes ATCC 19615; water additive EtOH) | further results
> 512 µg/mL | > 512 µg/mL | 512 µg/mL (≈ 803 µM) | 512 µg/mL (≈ 803 µM) | > 512 µg/mL | > 512 µg/mL | 512 µg/mL (≈ 803 µM) | > 512 µg/mL | > 512 µg/mL | > 512 µg/mL | > 512 µg/mL | > 512 µg/mL | > 512 µg/mL | CC(C)C[C@H](NC(=O)[C@H](CCCNC(=N)N)NC(=O)OCc1ccccc1)C(=O)N[C@H](CC(=O)NCCc1ccccc1)C(C)C [Compound A-152] (Cbz-Arg-Leu-[β3hV]-NHPhenethyl) | 512 µg/mL (≈ 803 µM) | pro-proliferating effect at lower concentrations followed by an antiproliferative effect at higher concentrations | pro-proliferating effect at lower concentrations followed by an antiproliferative effect at higher concentrations | ≤ 50% | 256 µg/mL (≈ 401 µM) | 126 µg/mL (≈ 198 µM) | MBC (E. faecalis c.i.; water additive DMSO): > 512 µg/mL; MIC (S. schleiferi c.i.; water additive DMSO): > 512 µg/mL; MBC (S. agalactiae ATCC 27956): 256 µg/mL (≈ 401 µM); MIC (S. mutans c.i.; water additive DMSO): > 512 µg/mL; MBC (S. aureus ATCC 43300; H2O): 256 µg/mL (≈ 401 µM); MBC (S. aureus ATCC 43300; water additive DMSO): 512 µg/mL (≈ 803 µM); MBC (S. cohnii c.i.; water additive DMSO): 512 µg/mL (≈ 803 µM); MBC (S. cohnii c.i.; water additive EtOH): 512 µg/mL (≈ 803 µM); cytotoxicity (LDH) (fibroblasts (46BR.1N)): ≤ 50%; MBC (S. pyogenes ATCC 19615; water additive DMSO): 256 µg/mL (≈ 401 µM)
> 512 µg/mL | > 512 µg/mL | > 512 µg/mL | 256 µg/mL (≈ 348 µM) | 16 µg/mL (≈ 21.7 µM) | 32 µg/mL (≈ 43.5 µM) | 32 µg/mL (≈ 43.5 µM) | > 512 µg/mL | 512 µg/mL (≈ 696 µM) | > 512 µg/mL | > 512 µg/mL | 256 µg/mL (≈ 348 µM) | 256 µg/mL (≈ 348 µM) | CC(C)[C@@H](CNC(=O)C(=Cc1ccccc1)c1ccccc1)NC(=O)[C@H](Cc1c[nH]cn1)NC(=O)[C@H](CCCNC(=N)N)NC(=O)OCc1ccccc1 [Compound A-176] | 512 µg/mL (≈ 696 µM) | negative impact | negative impact | exceeding 50% | 32 µg/mL (≈ 43.5 µM) | 32 µg/mL (≈ 43.5 µM) | MIC ([1]; H2O): > 512 µg/mL; MBC (E. faecalis c.i.; H2O): 512 µg/mL (≈ 696 µM); MIC (E. faecalis c.i.; H2O): 512 µg/mL (≈ 696 µM); MIC (S. schleiferi c.i.; H2O): 16 µg/mL (≈ 21.7 µM); MBC (S. schleiferi c.i.; water additive EtOH): 32 µg/mL (≈ 43.5 µM); MIC (S. mutans c.i.; H2O): 32 µg/mL (≈ 43.5 µM); MIC (S. aureus ATCC 43300; H2O): 32 µg/mL (≈ 43.5 µM); MIC (S. aureus ATCC 43300; water additive EtOH): 32 µg/mL (≈ 43.5 µM); MBC (E. coli ATCC 25922; H2O): 256 µg/mL (≈ 348 µM); MIC (E. coli ATCC 25922; H2O): 256 µg/mL (≈ 348 µM); antiproliferative effect (decrease vs control) [2, 5]: up to 50%; antiproliferative effect (decrease vs control) [3, 5]: up to 50%; MIC (P. vulgaris ATCC 6896; H2O): > 512 µg/mL; MIC (P. aeruginosa ATCC 10145; H2O): 256 µg/mL (≈ 348 µM); MBC (P. aeruginosa ATCC 10145; water additive DMSO): 256 µg/mL (≈ 348 µM); MBC (P. aeruginosa ATCC 10145; water additive EtOH): 256 µg/mL (≈ 348 µM); MIC (S. pyogenes ATCC 19615; H2O): 16 µg/mL (≈ 21.7 µM); MIC (S. pyogenes ATCC 19615; water additive DMSO): 16 µg/mL (≈ 21.7 µM); MIC (S. pyogenes ATCC 19615; water additive EtOH): 16 µg/mL (≈ 21.7 µM)
